Measured values: ChEMBL document CHEMBL1149512, “3-Aryl-4-hydroxyquinolin-2(1H)-one derivatives as type I fatty acid synthase inhibitors” (Bioorg Med Chem Lett, 2006)

What was measured:
[1] = target: Fatty acid synthase (Homo sapiens, UniProt P49327); test: Inhibition of human FAS
[2] = target: Fatty acid synthase (Rattus norvegicus, UniProt P12785); test: Inhibition of rat FAS
Sequence of Fatty acid synthase (Rattus norvegicus, UniProt P12785) (P12785 whole entry): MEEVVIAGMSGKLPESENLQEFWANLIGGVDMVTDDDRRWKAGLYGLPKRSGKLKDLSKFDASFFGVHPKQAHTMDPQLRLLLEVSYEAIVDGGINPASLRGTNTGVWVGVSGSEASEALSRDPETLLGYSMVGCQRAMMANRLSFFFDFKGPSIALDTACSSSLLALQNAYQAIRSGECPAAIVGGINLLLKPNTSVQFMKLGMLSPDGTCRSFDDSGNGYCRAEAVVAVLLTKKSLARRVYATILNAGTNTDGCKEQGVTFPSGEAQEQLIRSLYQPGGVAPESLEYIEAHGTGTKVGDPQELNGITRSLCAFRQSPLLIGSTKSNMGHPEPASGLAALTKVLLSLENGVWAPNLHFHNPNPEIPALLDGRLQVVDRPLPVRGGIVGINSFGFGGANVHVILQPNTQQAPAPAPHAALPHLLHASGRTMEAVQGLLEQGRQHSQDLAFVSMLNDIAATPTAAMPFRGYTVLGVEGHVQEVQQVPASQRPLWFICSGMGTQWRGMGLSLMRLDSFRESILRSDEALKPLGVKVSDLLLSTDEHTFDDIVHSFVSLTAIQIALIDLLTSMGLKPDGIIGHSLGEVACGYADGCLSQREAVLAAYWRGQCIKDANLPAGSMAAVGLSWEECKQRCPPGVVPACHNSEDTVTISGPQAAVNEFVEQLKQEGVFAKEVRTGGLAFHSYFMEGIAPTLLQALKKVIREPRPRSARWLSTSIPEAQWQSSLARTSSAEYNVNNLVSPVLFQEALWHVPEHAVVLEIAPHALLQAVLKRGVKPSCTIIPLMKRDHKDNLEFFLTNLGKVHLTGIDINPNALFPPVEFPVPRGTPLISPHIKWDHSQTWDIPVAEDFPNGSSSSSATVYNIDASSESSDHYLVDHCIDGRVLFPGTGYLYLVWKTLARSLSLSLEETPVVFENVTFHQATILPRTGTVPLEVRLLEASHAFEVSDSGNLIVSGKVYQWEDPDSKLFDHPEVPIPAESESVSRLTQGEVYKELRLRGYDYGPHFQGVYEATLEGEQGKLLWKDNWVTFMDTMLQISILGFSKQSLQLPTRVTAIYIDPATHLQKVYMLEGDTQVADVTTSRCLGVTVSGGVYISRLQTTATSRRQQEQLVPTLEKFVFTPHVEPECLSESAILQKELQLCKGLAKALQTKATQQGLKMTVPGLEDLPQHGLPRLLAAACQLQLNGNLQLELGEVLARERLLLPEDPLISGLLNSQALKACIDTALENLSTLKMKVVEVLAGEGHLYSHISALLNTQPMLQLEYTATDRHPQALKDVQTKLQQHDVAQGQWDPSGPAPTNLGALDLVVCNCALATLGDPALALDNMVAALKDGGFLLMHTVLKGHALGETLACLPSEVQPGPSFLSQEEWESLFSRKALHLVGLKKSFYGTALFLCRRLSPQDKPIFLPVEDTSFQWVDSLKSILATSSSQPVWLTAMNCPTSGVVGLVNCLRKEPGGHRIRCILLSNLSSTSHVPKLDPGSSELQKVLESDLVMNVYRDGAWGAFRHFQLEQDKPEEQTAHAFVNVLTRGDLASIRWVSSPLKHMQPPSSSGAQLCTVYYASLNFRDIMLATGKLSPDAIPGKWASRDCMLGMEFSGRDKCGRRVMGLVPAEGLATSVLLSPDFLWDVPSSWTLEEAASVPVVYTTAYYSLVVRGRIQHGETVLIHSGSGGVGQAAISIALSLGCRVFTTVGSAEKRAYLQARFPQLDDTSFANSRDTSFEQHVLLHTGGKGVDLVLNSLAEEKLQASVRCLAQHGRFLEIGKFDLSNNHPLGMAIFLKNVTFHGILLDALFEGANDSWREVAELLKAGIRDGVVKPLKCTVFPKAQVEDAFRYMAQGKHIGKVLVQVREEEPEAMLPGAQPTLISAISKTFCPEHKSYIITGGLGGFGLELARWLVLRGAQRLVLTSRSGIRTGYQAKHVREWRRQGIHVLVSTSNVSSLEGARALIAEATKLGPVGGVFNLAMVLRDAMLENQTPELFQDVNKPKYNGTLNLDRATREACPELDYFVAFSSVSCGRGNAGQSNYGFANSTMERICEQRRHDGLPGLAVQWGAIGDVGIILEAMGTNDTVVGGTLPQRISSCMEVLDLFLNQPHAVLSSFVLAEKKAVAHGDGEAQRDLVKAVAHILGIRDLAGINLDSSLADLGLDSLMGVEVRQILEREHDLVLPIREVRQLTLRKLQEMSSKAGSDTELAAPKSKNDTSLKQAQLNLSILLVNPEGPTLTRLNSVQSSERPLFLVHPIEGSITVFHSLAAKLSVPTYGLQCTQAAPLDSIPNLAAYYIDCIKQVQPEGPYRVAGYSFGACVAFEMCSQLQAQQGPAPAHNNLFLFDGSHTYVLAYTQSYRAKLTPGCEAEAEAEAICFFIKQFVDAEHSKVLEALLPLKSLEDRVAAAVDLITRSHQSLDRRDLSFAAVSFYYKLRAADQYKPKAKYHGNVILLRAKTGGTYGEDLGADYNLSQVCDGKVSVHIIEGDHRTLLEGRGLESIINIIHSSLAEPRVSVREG

Sequence of Fatty acid synthase (Homo sapiens, UniProt P49327) (P49327 whole entry): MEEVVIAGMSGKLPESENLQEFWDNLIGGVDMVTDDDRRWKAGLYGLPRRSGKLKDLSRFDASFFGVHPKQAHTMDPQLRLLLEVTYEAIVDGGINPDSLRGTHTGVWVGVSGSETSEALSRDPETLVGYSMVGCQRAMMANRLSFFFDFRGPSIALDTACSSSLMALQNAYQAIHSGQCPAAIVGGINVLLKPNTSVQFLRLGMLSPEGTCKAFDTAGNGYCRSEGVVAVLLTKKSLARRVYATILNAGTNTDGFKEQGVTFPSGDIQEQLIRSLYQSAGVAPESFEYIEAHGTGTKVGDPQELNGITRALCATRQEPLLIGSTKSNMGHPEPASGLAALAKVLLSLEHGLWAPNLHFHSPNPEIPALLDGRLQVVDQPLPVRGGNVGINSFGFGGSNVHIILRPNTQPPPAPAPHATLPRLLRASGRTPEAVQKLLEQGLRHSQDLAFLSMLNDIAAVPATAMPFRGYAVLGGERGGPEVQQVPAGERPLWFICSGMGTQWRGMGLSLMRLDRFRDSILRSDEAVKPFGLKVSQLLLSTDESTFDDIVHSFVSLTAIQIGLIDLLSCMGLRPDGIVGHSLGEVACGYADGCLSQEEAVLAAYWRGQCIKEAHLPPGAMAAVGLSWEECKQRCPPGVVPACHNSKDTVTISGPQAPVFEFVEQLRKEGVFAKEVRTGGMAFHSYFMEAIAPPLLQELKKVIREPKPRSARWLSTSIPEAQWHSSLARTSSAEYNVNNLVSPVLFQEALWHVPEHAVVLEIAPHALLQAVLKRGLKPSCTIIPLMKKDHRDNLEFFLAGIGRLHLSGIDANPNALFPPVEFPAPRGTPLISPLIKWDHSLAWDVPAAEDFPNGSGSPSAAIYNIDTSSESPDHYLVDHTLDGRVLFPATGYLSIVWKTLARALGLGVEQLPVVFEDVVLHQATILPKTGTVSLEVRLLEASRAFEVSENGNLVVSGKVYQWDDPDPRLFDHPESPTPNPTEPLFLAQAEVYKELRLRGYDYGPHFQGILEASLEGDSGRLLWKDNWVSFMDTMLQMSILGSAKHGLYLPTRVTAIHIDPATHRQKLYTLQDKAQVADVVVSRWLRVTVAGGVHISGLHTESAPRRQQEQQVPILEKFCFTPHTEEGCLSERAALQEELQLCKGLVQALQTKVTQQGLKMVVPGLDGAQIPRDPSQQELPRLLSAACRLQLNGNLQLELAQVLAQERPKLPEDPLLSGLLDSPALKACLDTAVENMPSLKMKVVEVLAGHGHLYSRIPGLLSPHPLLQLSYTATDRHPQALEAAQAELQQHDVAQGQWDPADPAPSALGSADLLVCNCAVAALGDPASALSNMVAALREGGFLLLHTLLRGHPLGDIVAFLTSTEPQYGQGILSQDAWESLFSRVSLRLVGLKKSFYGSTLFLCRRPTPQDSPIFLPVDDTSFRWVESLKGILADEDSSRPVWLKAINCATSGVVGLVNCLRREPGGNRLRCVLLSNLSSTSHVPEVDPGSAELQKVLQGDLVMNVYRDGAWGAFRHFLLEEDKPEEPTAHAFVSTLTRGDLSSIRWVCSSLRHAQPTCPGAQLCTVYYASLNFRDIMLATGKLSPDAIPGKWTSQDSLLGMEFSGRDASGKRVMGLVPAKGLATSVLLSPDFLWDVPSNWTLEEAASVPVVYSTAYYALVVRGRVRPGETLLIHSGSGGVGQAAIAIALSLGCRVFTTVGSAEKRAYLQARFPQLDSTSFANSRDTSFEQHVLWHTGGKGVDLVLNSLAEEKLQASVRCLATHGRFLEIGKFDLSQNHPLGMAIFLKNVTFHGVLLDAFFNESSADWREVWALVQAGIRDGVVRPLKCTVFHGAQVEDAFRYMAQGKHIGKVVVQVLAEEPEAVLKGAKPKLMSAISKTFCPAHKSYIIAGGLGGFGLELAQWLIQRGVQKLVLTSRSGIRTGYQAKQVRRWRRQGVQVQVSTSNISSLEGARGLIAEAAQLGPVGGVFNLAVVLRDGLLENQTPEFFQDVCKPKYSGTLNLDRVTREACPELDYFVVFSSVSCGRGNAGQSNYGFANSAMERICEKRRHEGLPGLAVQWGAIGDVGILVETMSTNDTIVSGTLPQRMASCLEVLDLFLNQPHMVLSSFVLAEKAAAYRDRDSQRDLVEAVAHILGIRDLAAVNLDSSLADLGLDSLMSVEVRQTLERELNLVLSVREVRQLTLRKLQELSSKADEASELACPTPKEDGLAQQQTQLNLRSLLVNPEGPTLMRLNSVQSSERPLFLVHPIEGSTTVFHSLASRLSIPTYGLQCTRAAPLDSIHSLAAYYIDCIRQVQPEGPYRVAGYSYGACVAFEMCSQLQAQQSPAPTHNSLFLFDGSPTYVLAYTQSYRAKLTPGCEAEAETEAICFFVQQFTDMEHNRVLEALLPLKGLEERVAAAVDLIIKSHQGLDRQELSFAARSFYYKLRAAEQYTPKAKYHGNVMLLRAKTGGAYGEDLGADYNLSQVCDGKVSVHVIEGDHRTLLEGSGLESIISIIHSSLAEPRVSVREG

IC50 [1] [nM]	IC50 [2] [nM]	Compound
> 15000	> 15000	CS(=O)(=O)c1ccc2[nH]c(=O)c(-c3ccccc3)c(O)c2c1
52		N#Cc1cc2c(O)c(-c3cccc(-c4ccccc4)c3)c(=O)[nH]c2cc1Cl
> 15000	> 15000	O=c1[nH]c2ccc(S(=O)(=O)C(F)(F)F)cc2c(O)c1-c1ccccc1
	> 15000	O=c1[nH]c2ccccc2c(O)c1-c1ccccc1
54		N#Cc1cc2c(O)c(-c3cccc(-c4ccc(F)cc4)c3)c(=O)[nH]c2cc1Cl
207	73	O=c1[nH]c2cc(Cl)c([N+](=O)[O-])cc2c(O)c1-c1ccccc1
	122	O=c1[nH]c2cc(Cl)c([N+](=O)[O-])cc2c(O)c1-c1ccc(-c2ccccc2)cc1
4160		CS(=O)(=O)c1cccc(-c2c(O)c3cc(C#N)c(Cl)cc3[nH]c2=O)c1
1290		N#Cc1ccc2[nH]c(=O)c(-c3ccccc3)c(O)c2c1
> 15000		COc1ccc(CNc2c(-c3ccccc3)c(=O)[nH]c3cc(Cl)c(C#N)cc23)cc1
> 15000		N#Cc1cc2c(NCc3ccccc3)c(-c3ccccc3)c(=O)[nH]c2cc1Cl
734		Cn1cc(-c2cccc(-c3c(O)c4cc(C#N)c(Cl)cc4[nH]c3=O)c2)cn1
> 15000	> 15000	O=c1[nH]c2ccc(C(F)(F)F)cc2c(O)c1-c1ccccc1
	86	O=c1[nH]c2cc(Cl)c([N+](=O)[O-])cc2c(O)c1-c1ccc(OCc2ccccc2)cc1
19		COc1ccccc1-c1cccc(-c2c(O)c3cc(C#N)c(Cl)cc3[nH]c2=O)c1
> 15000		N#Cc1cc2c(Br)c(-c3ccccc3)c(O)nc2cc1Cl
	3000	O=c1[nH]c2c([N+](=O)[O-])cccc2c(O)c1-c1ccccc1
	> 15000	O=C(O)c1ccc2[nH]c(=O)c(-c3ccccc3)c(O)c2c1
136		N#Cc1cc2c(O)c(-c3ccccc3)c(=O)[nH]c2cc1Cl
1400	550	O=c1[nH]c2ccc([N+](=O)[O-])cc2c(O)c1-c1ccccc1

IC50 [1] [nM]	IC50 [2] [nM]	Compound
127		N#Cc1cc2c(O)c(-c3cccc(-c4ccc5ccccc5c4)c3)c(=O)[nH]c2cc1Cl
194		N#Cc1cc2c(O)c(-c3cccc(-c4cccnc4)c3)c(=O)[nH]c2cc1Cl
> 15000		N#Cc1cc2c(N)c(-c3ccccc3)c(O)nc2cc1Cl
	> 15000	O=c1cc(O)c2cc([N+](=O)[O-])ccc2[nH]1
68		N#Cc1cc2c(O)c(-c3cccc(-c4ccc(F)c(F)c4)c3)c(=O)[nH]c2cc1Cl
101		N#Cc1cc2c(O)c(-c3cccc(-c4csc5ccccc45)c3)c(=O)[nH]c2cc1Cl
	172	O=c1[nH]c2cc(Cl)c([N+](=O)[O-])cc2c(O)c1-c1cc(F)cc(F)c1
> 15000		N#Cc1cc2c(Cl)c(-c3ccccc3)c(=O)[nH]c2cc1Cl
> 15000		N#Cc1cc2c(C#N)c(-c3ccccc3)c(=O)[nH]c2cc1Cl
	173	O=c1[nH]c2cc(Cl)c([N+](=O)[O-])cc2c(O)c1-c1ccc(F)cc1F
728		N#Cc1cc2c(O)c(-c3cccc(-c4cc(F)cc(F)c4)c3)c(=O)[nH]c2cc1Cl
	3400	Cc1cc(-c2c(O)c3cc([N+](=O)[O-])c(Cl)cc3[nH]c2=O)on1
402		N#Cc1cc(Cl)c2[nH]c(=O)c(-c3ccccc3)c(O)c2c1
	6000	O=c1[nH]c2cc(Cl)c([N+](=O)[O-])cc2c(O)c1-c1ccc2ccccc2c1
	50	O=c1[nH]c2cc(F)c([N+](=O)[O-])cc2c(O)c1-c1ccccc1
	2600	O=c1[nH]c2cc(Cl)c([N+](=O)[O-])cc2c(O)c1-c1nnn[nH]1
	700	O=c1[nH]c2cc(Cl)c([N+](=O)[O-])cc2c(O)c1-c1cccs1
	443	O=c1[nH]c2cc(Cl)c([N+](=O)[O-])cc2c(O)c1-c1ccc(Cl)cc1Cl
	134	O=c1[nH]c2cc(Cl)c([N+](=O)[O-])cc2c(O)c1-c1cc(Cl)cc(Cl)c1
